Measured values reported in publication PMC10667265 (Scientific Reports, 2023).
Where two headings read alike, the source gives them in different places. Where no end group is shown, it is not given here.

Assays:
[1] = infiltrated into the abaxial side of leaves of potato plants; methanolic extracts of leaf disks; details: potato (Solanum tuberosum cv. Désirée), 20 °C, up to 8 h
[2] = for amidated StPIP1_1 remaining: two independent experiments, n = 16 (Fig. 6A)
[3] = exogenous application to leaves; cited from earlier work
From the text: In Arabidopsis, PIPs are encoded by 11 genes. […] Recently, the PAMP-induced peptides StPIP1 to StPIP4 were described in potato (Solanum tuberosum[23]).

potato = details: used as control for Pep-13; cited from earlier work
Protocol: Potato plants (Solanum tuberosum cv. Désirée) were cultivated in sterile tissue culture in a phytochamber (16 h light, ~ 140 µE, 22 °C). Plants were transferred to steam-sterilized soil and grown for 4 weeks under long day conditions in a phytochamber (16 h light, ~ 140 µE, 60% humidity, 20 °C). PAMP treatment was performed with leaf disks that were cut out from 4-week-old potato plants with a biopsy puncher (4 mm diameter) and placed with the abaxial side onto the surface of 250 µl of water in a 96-well plate. The plate was incubated overnight at 22 °C in the dark. Water from the wells was re ...

RLPSGPSPRGPGH-NH2
cleaved bond [1]: H-NH2, within minutes

RLPSGPSPRGPGH-NH2 [StPIP1_1]
amidated StPIP1_1 remaining ([2]; 100 µM amidated peptide infiltrated into leaves of phytochamber-grown potato plants, 30 min after infiltration, methanolic leaf extracts, LC-MS): 20%
amidated StPIP1_1 remaining ([2]; 100 µM amidated peptide infiltrated into potato leaves, 1 h after infiltration, LC-MS): 10%

TLGGIKAGPSPGEGHKVVNSHHQ [StPIP1]
ROS production [3]: does not induce
increases in the cytosolic Ca2+ concentrations [3]: does not induce

VANQPVRGFKVYE [W2A]
elicitor activity relative to Pep-13 (potato): nearly inactive

VWNQPVRGFKVYE [acidic form of Pep-13]
time within which the acidic form was degraded ([2]; after infiltration of 100 µM amidated Pep-13 into potato leaves, LC-MS (Fig. 6D)): ≤ 1 h

VWNQPVRGFKVYE-NH2
cleaved bond [1]: E-NH2, within 30 min

VWNQPVRGFKVYE-NH2 [Pep-13, reference compound]
time within which the amidated peptide was converted to the acidic form ([2]; 100 µM amidated Pep-13 infiltrated into potato leaves, LC-MS, two independent experiments (Fig. 6C)): ≤ 30 min
